Measured values: patent US9682965B2, “Fumagillol heterocyclic compounds and methods of making and using same” (Zafgen, Inc., priority 2015, dated 2017)
Counter-ions that a name gives are not always drawn.

Legend:
[1] = system: Diet Induced Obese (DIO) C57BL/6 mice; assay: 10 day DIO mouse model (body weight, food intake, hematology, blood chemistry); type: in vivo; conditions: 240 h; DIO mouse, 0.3 mpk sc, once a day for 10 days; read-out: DIO Mouse 10-day weight loss vs vehicle
How it was run: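 DIO C57BL/6 mice on 60% kcal fat diet received compounds subcutaneously once daily for 10 days at 1.0, 0.5, 0.3, 0.1 or 0.03 mpk, in 10% DMSO in water, after 3-day vehicle acclimation. Body weight and food intake were recorded daily. Hematology and blood chemistry were taken on Day 11, 24 h post-final dose.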

[2] = system: Male Sprague Dawley rats on high fat diet; assay: 11 day rat DIO model (body weight, food intake, hematology, blood chemistries); type: in vivo; conditions: 264 h, DIO rat, once a day for 11 days, read-out: DIO Rat 11-day weight loss vs vehicle; for inhibition in vivo at 0.3 mg/kg: 0.3 mpk sc; for inhibition in vivo at 1 mg/kg: 1.0 mpk sc
Source text: The objective of this study design is to investigate the efficacy of disclosed compounds in an 11 day rat DIO model used to screen compounds for pharmacologic efficacy on endpoints related to obesity and metabolism. Effects on body weight, food intake, hematology and blood chemistries were the primary readouts of this study design. […] Rats were fed Research Diets D12451 (45% High Fat) and provided water ad libitum. Rats were received and housed in the facility for at least two or three weeks prior to start of test article administration. On Day −4 or −3, rats were randomized into study groups based on body weight and body weights were continued to be recorded daily for the duration of the study. Daily food intake was assessed starting on Study Day −2 by weighing the hopper including the food to avoid loss of food in transfer.
Compounds were formulated into a 100% DMSO stock (at 9 mg/mL) prior to the start, and further diluted into the target working concentration using the vehicle of 10% DMSO in water. Prior to test article administration, starting on Day −3 a dosing acclimation occured with all animals receiving a subcutaneous injection of vehicle (10% DMSO) only for 3 days. Starting on Day 1, test compounds or vehicle were administered based on individual body weight, subcutaneously, once a day for 11 days. All animals were sacrificed on Day 11, approximately 2 hours following the final dosing on Day 11. After sacrifice, whole blood was collected and analyzed for hematology and blood chemistry parameters.
Compounds were tested vs. vehicle at various doses (1.0, 0.5, 0.3, 0.1, 0.03 mpk sc (mg per kg animal weight delivered subcutaneously), and the results are shown in Table 2 below.

## CO[C@@H]1[C@H](OC(=O)N2CC[C@@H](CN3CCOCC3)C2)CC[C@]2(CO2)[C@H]1[C@@]1(C)O[C@@H]1CC=C(C)C [Example 37, (S)-(3R,4S,5S,6R)-5-methoxy-4-((2R,3R)-2-methyl-3-(3-methylbut-2-en-1-yl)oxiran-2-yl)-1-oxaspiro[2.5]octan-6-yl 3-(morpholinomethyl)pyrrolidine-1-carboxylate formate]
[1]
  inhibition in vivo at 0.3 mg/kg: 11.1%
[2]
  inhibition in vivo at 0.3 mg/kg: 5.3%

## CO[C@@H]1[C@H](OC(=O)N2CCC(CCN3CC(F)(F)C3)C2)CC[C@]2(CO2)[C@H]1[C@@]1(C)O[C@@H]1CC=C(C)C (stereo in doubt) [Example 57, (R)-(3R,4S,5S,6R)-5-methoxy-4-((2R,3R)-2-methyl-3-(3-methylbut-2-en-1-yl)oxiran-2-yl)-1-oxaspiro[2.5]octan-6-yl 3-(2-(3,3-difluoroazetidin-1-yl)ethyl)pyrrolidine-1-carboxylate]
[1]
  inhibition in vivo at 0.3 mg/kg: 17.4%
[2]
  inhibition in vivo at 0.3 mg/kg: 5.3%

## CO[C@@H]1[C@H](OC(=O)N2CC(CCN3CCC(F)(F)C3)C2)CC[C@]2(CO2)[C@H]1[C@@]1(C)O[C@@H]1CC=C(C)C [Example 45, (3R,4S,5S,6R)-5-methoxy-4-((2R,3R)-2-methyl-3-(3-methylbut-2-enyl)oxiran-2-yl)-1-oxaspiro[2.5]octan-6-yl 3-(2-(3,3-difluoropyrrolidin-1-yl)ethyl)azetidine-1-carboxylate]
[1]
  inhibition in vivo at 0.3 mg/kg: 16.8%
[2]
  inhibition in vivo at 0.3 mg/kg: 5.2%

## CO[C@@H]1[C@H](OC(=O)N2CC(Cc3ccccn3)C2)CC[C@]2(CO2)[C@H]1[C@@]1(C)O[C@@H]1CC=C(C)C [Example 100, (3R,4S,5S,6R)-5-methoxy-4-((2R,3R)-2-methyl-3-(3-methylbut-2-en-1-yl)oxiran-2-yl)-1-oxaspiro[2.5]octan-6-yl 3-(pyridin-2-ylmethyl)azetidine-1-carboxylate]
[1]
  inhibition in vivo at 0.3 mg/kg: 9.8%
[2]
  inhibition in vivo at 0.3 mg/kg: 5.5%

## CCN(CC)C[C@@H]1CCCN1C(=O)O[C@@H]1CC[C@]2(CO2)[C@@H]([C@@]2(C)O[C@@H]2CC=C(C)C)[C@@H]1OC [Example 48, (S)-((3R,4S,5S,6R)-5-methoxy-4-((2R,3R)-2-methyl-3-(3-methylbut-2-enyl)oxiran-2-yl)-1-oxaspiro[2.5]octan-6-yl) 2-((diethylamino)methyl)pyrrolidine-1-carboxylate formate]
[1]
  inhibition in vivo at 0.3 mg/kg: 7.2%
[2]
  inhibition in vivo at 0.3 mg/kg: 0.65%
  inhibition in vivo at 1 mg/kg: 7.88%

## CO[C@@H]1[C@H](OC(=O)N2CC(CCn3cccn3)C2)CC[C@]2(CO2)[C@H]1[C@@]1(C)O[C@@H]1CC=C(C)C [Example 17, (3R,4S,5S,6R)-5-methoxy-4-((2R,3R)-2-methyl-3-(3-methylbut-2-enyl)oxiran-2-yl)-1-oxaspiro[2.5]octan-6-yl 3-(2-(1H-pyrazol-1-yl)ethyl)azetidine-1-carboxylate]
[1]
  inhibition in vivo at 0.3 mg/kg: 12.6%
[2]
  inhibition in vivo at 0.3 mg/kg: 5.1%

## CO[C@@H]1[C@H](OC(=O)N2CC(CN3CCOCC3)C2)CC[C@]2(CO2)[C@H]1[C@@]1(C)O[C@@H]1CC=C(C)C [Example 95, (3R,4S,5S,6R)-5-methoxy-4-((2R,3R)-2-methyl-3-(3-methylbut-2-enyl)oxiran-2-yl)-1-oxaspiro[2.5]octan-6-yl 3-(morpholinomethyl)azetidine-1-carboxylate]
[1]
  inhibition in vivo at 0.3 mg/kg: 14.7%
[2]
  inhibition in vivo at 0.3 mg/kg: 3%

## CCN(CC)C[C@H]1CCCN1C(=O)O[C@@H]1CC[C@]2(CO2)[C@@H]([C@@]2(C)O[C@@H]2CC=C(C)C)[C@@H]1OC [Example 60, (R)-((3R,4S,5S,6R)-5-methoxy-4-((2R,3R)-2-methyl-3-(3-methylbut-2-enyl)oxiran-2-yl)-1-oxaspiro[2.5]octan-6-yl) 2-((diethylamino)methyl)pyrrolidine-1-carboxylate formate]
[1]
  inhibition in vivo at 0.3 mg/kg: 6.3%
[2]
  inhibition in vivo at 0.3 mg/kg: 1.95%
  inhibition in vivo at 1 mg/kg: 7.79%

## CO[C@@H]1[C@H](OC(=O)N2CC(CCN3CCOCC3)C2)CC[C@]2(CO2)[C@H]1[C@@]1(C)O[C@@H]1CCC(C)C [Example 127, (3R,4S,5S,6R)-4-((2R,3R)-3-isopentyl-2-methyloxiran-2-yl)-5-methoxy-1-oxaspiro[2.5]octan-6-yl 3-(2-morpholinoethyl)azetidine-1-carboxylate]
[1]
  inhibition in vivo at 0.3 mg/kg: 15.2%
[2]
  inhibition in vivo at 0.3 mg/kg: 6.1%
  inhibition in vivo at 1 mg/kg: 10.7%

## CO[C@@H]1[C@H](OC(=O)N2CC[C@H](CCN3CCOCC3)C2)CC[C@]2(CO2)[C@H]1[C@@]1(C)O[C@@H]1CC=C(C)C [Example 54, (S)-((3R,4S,5S,6R)-5-methoxy-4-((2R,3R)-2-methyl-3-(3-methylbut-2-enyl)oxiran-2-yl)-1-oxaspiro[2.5]octan-6-yl) 3-(2-morpholinoethyl)pyrrolidine-1-carboxylate]
[1]
  inhibition in vivo at 0.3 mg/kg: 16.4%
[2]
  inhibition in vivo at 0.3 mg/kg: 7.3%

## CO[C@@H]1[C@H](OC(=O)N2CC(CCN3CC(F)(F)C3)C2)CC[C@]2(CO2)[C@H]1[C@@]1(C)O[C@@H]1CCC(C)C [Example 126, (3R,4S,5S,6R)-4-((2R,3R)-3-isopentyl-2-methyloxiran-2-yl)-5-methoxy-1-oxaspiro[2.5]octan-6-yl3-(2-(3,3-difluoroazetidin-1-yl)ethyl)azetidine-1-carboxylate]
[1]
  inhibition in vivo at 0.3 mg/kg: 13.2%
[2]
  inhibition in vivo at 0.3 mg/kg: 7.4%
  inhibition in vivo at 1 mg/kg: 9.1%

## CCN(CC)C[C@@H]1CCN1C(=O)O[C@@H]1CC[C@]2(CO2)[C@@H]([C@@]2(C)O[C@@H]2CC=C(C)C)[C@@H]1OC [Example 40, (S)-((3R,4S,5S,6R)-5-methoxy-4-((2R,3R)-2-methyl-3-(3-methylbut-2-enyl)oxiran-2-yl)-1-oxaspiro[2.5]octan-6-yl) 2-((diethylamino)methyl)azetidine-1-carboxylate formate]
[1]
  inhibition in vivo at 0.3 mg/kg: 6%
[2]
  inhibition in vivo at 0.3 mg/kg: 0.08%
  inhibition in vivo at 1 mg/kg: 4.73%

## CO[C@@H]1[C@H](OC(=O)N2CC(CCN3CCN(CC(F)F)CC3)C2)CC[C@]2(CO2)[C@H]1[C@@]1(C)O[C@@H]1CC=C(C)C [Example 34, (3R,4S,5S,6R)-5-methoxy-4-((2R,3R)-2-methyl-3-(3-methylbut-2-en-1-yl)oxiran-2-yl)-1-oxaspiro[2.5]octan-6-yl 3-(2-(4-(2,2-difluoroethyl)piperazin-1-yl)ethyl)azetidine-1-carboxylate]
[1]
  inhibition in vivo at 0.3 mg/kg: 9.3%
[2]
  inhibition in vivo at 0.3 mg/kg: 5.1%

## CO[C@@H]1[C@H](OC(=O)N2CC(CCC3CCN(CC(F)F)CC3)C2)CC[C@]2(CO2)[C@H]1[C@@]1(C)O[C@@H]1CC=C(C)C [Example 91, (3R,4S,5S,6R)-5-methoxy-4-((2R,3R)-2-methyl-3-(3-methylbut-2-enyl)oxiran-2-yl)-1-oxaspiro[2.5]octan-6-yl 3-(2-(1-(2,2-difluoroethyl)piperidin-4-yl)ethyl)azetidine-1-carboxylate formate]
[1]
  inhibition in vivo at 0.3 mg/kg: 29.7%
[2]
  inhibition in vivo at 0.3 mg/kg: 17.2%

## CO[C@@H]1[C@H](OC(=O)N2CC(Nc3ccccn3)C2)CC[C@]2(CO2)[C@H]1[C@@]1(C)O[C@@H]1CC=C(C)C [Example 98, (3R,4S,5S,6R)-5-methoxy-4-((2R,3R)-2-methyl-3-(3-methylbut-2-enyl)oxiran-2-yl)-1-oxaspiro[2.5]octan-6-yl 3-(pyridin-2-ylamino)azetidine-1-carboxylate]
[1]
  inhibition in vivo at 0.3 mg/kg: 12.6%
[2]
  inhibition in vivo at 0.3 mg/kg: 1.2%
